Patent US20060030537A1, “Ceramide kinase and uses thereof” (priority 2004, published 2006)

Legend:
[1] = tested on: sphingosine kinase-1; assay: Immunoreactive levels of sphingosine kinase-1 after ceramide kinase RNAi; type: cell-based; conditions: cells transfected with RNAi targeted to ceramide kinase
[2] = tested on: A549 cells; assay: Quantification of prostaglandin E2 synthesis in A549 cells (EIA); type: cell-based; conditions: compared with inhibition of AA release
Experimental: Cell Culture: A549 lung adenocarcinoma cells (epithelial-derived) were grown in low glucose DMEM (Invitrogen) supplemented with L-glutamine, 10% (v/v) fetal bovine serum (Invitrogen), 200 U/ml of penicillin G sodium, and 200 μg/ml of streptomycin sulfate. Cells were maintained under 80% confluency and standard incubator conditions (humidified atmosphere, 95% air, 5% CO2, 370 C). For treatment, cells were incubated for 2 hours in low glucose DMEM (Invitrogen) supplemented with L-glutamine, 2% (v/v) fetal bovine serum (Invitrogen), 200 U/ml of penicillin G sodium, and 200 μg/ml of streptomycin sulfate prior to the addition of agonist.
Quantification of prostaglandin E2 and thromboxane B2 synthesis: For measurement of PGE2 and TXB2 levels, aliquots of media were taken at indicated time points and assayed according to manufacturer's instructions using the prostaglandin E2 and thromboxane B2 monoclonal EIA Kit from Cayman Chemical. Briefly, media containing PGE2 or TXB2 competes with PGE2 or TXB2 acetylcholinesterase conjugate for a limited amount of monoclonal antibody. The antibody-PGE2 or -TXB2 conjugate binds to a goat-anti-mouse antibody previously attached to the 96-well plate. The plate is washed to remove unbound reagents and then the substrate for acetylcholinesterase is provided. […] Results were controlled for equivalent number of cells quantified by MTT assay. […]

[3] = tested on: L929 fibroblasts; assay: AA release in L929 fibroblasts; type: cell-based
Experimental: FIGS. 3A-3B. FIG. 3A. The effects of ceramide-1-phosphate on TXB2 synthesis. A549 cells (1×10^5) were treated with D-e-C16 ceramide-1-phosphate (1 μM) solubilized in 2% dodecane/98% ethanol (final concentration in treatments was 0.002% dodecane/0.098% ethanol (EtOH)) for the indicated times. The results are presented as % control of TXB2 controlled for equivalent number of cells by MTT assay. Data are representative of 3 separate determinations on 2 separate occasions. FIG. 3B. The effects of ceramide-1-phosphate on AA release and PGE2 synthesis in L929 fibroblasts. L929 cells (5×10^4) were labeled overnight with 5 μCi/mL [^3H]-arachidonic acid (5 nM). Cells were washed and placed in DMEM supplemented with 2% fetal bovine serum for two hours. […]
Quantification of arachidonic acid (AA) release: A549 cells (5×10^4) were labeled overnight with 5 μCi/mL [^3H]-AA (5 nM) (NEN). […] Following treatment, media was transferred to 1.5 mL polypropylene tubes, centrifuged at 10,000×g, and ^3H-AA cpm determined by scintillation counting. Results were controlled for equivalent number of cells quantified by MTT assay as described (Chalfant, C. E., Rathman, K., Pinkerman, R. L., Wood, R. E., Obeid, L. M., Ogretmen, B., and Hannun, Y. A. (2002) J. Biol. Chem. 277, 12587-12595) and by verification of total AA labeling by scintillation counting. […]

[4] = tested on: ceramide kinase mRNA; assay: RT-PCR of ceramide kinase mRNA in A549 cells; type: cell-based, human; conditions: 26 hours after transfection, normalized to 18s ribosomal RNA
Experimental: FIGS. 6A-6B. Ceramide kinase RNAi downregulates endogenous ceramide kinase activity and mRNA levels. FIG. 6A. The effect of ceramide kinase RNAi on endogenous ceramide kinase activity. A549 cells (5×10^4) were transfected with the 21-nucleotide duplexes for ceramide kinase or scrambled control sequence. Following the 4 hour transfection, cells incubated in normal growth media for 26 hours. Cells were then washed, lysed in assay buffer, and assayed for ceramide kinase activity. Data are presented as % control ceramide kinase activity with control RNAi (Control) or ceramide kinase RNAi (CerK RNAi). Data are representative of three separate determinations on two separate occasions. FIG. 6B. The effect of ceramide kinase RNAi on the mRNA levels of ceramide kinase. Following the same procedure as outlined in FIG. 6A, total RNA was extracted and analyzed via logarithmic reverse-transcriptase polymerase chain reaction for human ceramide kinase and 18s ribosomal RNA. Data are presented as percent control after the densitometry of ceramide kinase mRNA was normalized to 18s ribosomal RNA levels with control RNAi (Control) or ceramide kinase RNAi (CerK RNAi). Data are representative of three separate determinations on two separate occasions. […]

[5] = tested on: A549 cells; type: cell-based

ceramide kinase RNAi: 21-nucleotide duplex, human ceramide kinase RNAi starting 142 nucleotides from start codon (SEQ ID NO: 3 and 4) (chain 1 UGCCUGCUCUGUGCCUGUATT; chain 2 UACAGGCACAGAGCAGGCATT; chemistry not given here)
immunoreactive levels of sphingosine kinase-1 [1]: no decrease | inhibition of PGE2 synthesis in response to IL-1β and A23187 [2]: to the same extent | inhibition of AA release in response to IL-1β [3]: over 60% | decrease of ceramide kinase mRNA levels [4]: 73% | effects on cell number [5]: without effects
